From US7704969B2, “Transfection complexes” (ICH Productions Limited, priority 2001, dated 2010)
“Also recorded” adds a separate entry of the source. Bridge positions count the residues as written; N and C are the ends. Ends that are not written are not given here.

Assays:
HAE cells [1] = test: Whole cell ELISA of phage binding to HAE cells; parameters: species or system human; conditions: phage sequences of Table 1a compared and ranked using a range of phage titres
Description: Following incubation of the phage with the HAE cells, the cells are washed and retained phage may then be detected by immunostaining. Cell specificity is assessed by comparing phage binding to target cells with phage binding to the wells on which the cells were plated and with phage binding to NIH 3T3 fibroblast control cells.
Binding of phage to tissue cultured HAE cells was investigated by whole cell ELISA. Approx. 8×10^4 HAE cells in […] Hanks Balanced Salts Solution (HBSS) were added to each well of a 96 well plate and incubated at 37° C. until cells had adhered. The cells were washed gently in HBSS before blocking by the addition of 0.5% BSA in HBSS for 30 mins. […] Bound phage were detected by the addition of horseradish peroxidase (HRP)-conjugated anti-M13 antibody diluted 1:5000 in blocking buffer for 1 hour, before washing three times in PBS and developing the ELISA with 2,2′-azino-bis(3-ethylbenzthiazoline 6-sulfonic acid) (ABTS) substrate solution and reading the absorbance on a plate-reading spectrophotometer at 405 nm. […]
Approx. […] Bound phage were detected by the addition of HRP-conjugated anti-M13 antibody diluted 1:5000 in blocking buffer for 1 hour, before washing three times in PBS, developing the ELISA with ABTS solution, and reading the absorbance at 405 nm.

HAE cells [2] = test: Luciferase reporter gene transfection of HAE cells with lipid/peptide/DNA vector complexes; type: cell-based, human
From the text: Transfection complexes were made by mixing the components in the order 1) lipid, then 2) peptide and, finally 3) DNA, followed by dilution. The vector complex suspension was applied to HAE cells and control cells. Vector complexes incorporating peptide Q ([K]16-GACLQHKSMPCG [SEQ. ID. NO.:12]) and vector complexes incorporating peptide P ([K]16-GACLPHKSMPCG [SEQ. ID. NO.:13]) were synthesised and compared with vector complexes incorporating peptide S ([K]16-GACYKHPGFLCG] [SEQ. ID. NO.:14]) which is a control peptide having the same amino acid constituents as peptide P but in a randomised order (the “scrambled control”), Peptide 12 ([K]16—XSXGACRRETAWACG [SEQ. ID. NO.:15]), a targeting peptide known to bind to alpha 5 beta 1 integrins and Peptide K ([K]16) a DNA binding moiety with no targeting ligand attached.
Transfections of HAE cells and 3T3 cells were performed in 96 well plates containing 20,000 cells plated 24 hours earlier. In the transfection vector complex, peptide to DNA charge ratios (+/−) were used at 1.5:1, 3:1 and 7:1. At physiological pH, DNA carries negative charge and the polycationic-nucleic acid binding component carries positive charge. The “charge ratio” is accordingly the ratio of the charges of the two components in the complex. The lipid component was maintained at a constant proportion, by weight, relative to DNA of 0.75:1.
Control peptide (S), consisted of the same amino acid constituents as the targeting peptide P but in a randomised order, was synthesised for incorporation into lipopolyplex formulations. Transfections of HAE and 3T3 cells were performed in 96 well plated containing 20,000 cells plated 24 h earlier. In the transfection complex, peptide to DNA charge ratios (+/−) were used at 1.5:1, 3:1 and 7:1. The lipid component was maintained at a constant proportion, by weight, relative to DNA of 0.75:1. Prior to making transfection complexes the lipid component was diluted to a concentration of 15 μg per ml, the peptide was prepared at 0.1 mg/ml and the DNA was at 20 μg per ml. All dilutions were performed with OptiMEM reduced serum tissue culture medium (Life Technologies). Transfection complexes were made by mixing of components in the order 1) lipid then 2) peptide and finally 3) DNA, then diluted with OptiMEM to a concentration relative to the DNA component of 0.25 μg DNA per 200 μl which volume was added to each well. Each group was performed in replicates of six. The vector complex suspension was then applied to cells within 5 minutes of preparation. Transfection incubations were performed at 37° C. for 4 h. Luciferase reporter gene assays in cell free extracts were performed after 48 h incubation using a kit from Promega according to the manufacturer's protocol. […]

3T3 cells = test: Luciferase reporter gene transfection of 3T3 cells; type: cell-based, mouse; conditions: FIG. 8, best peptide:DNA charge ratio, expression after 24 hours

## LPHKSMP (not fully specified (N-terminus, C-terminus)) [basis of peptide P]
HAE cells [1]
  binding affinity to HAE cells (binding strength by ELISA): highest binding affinity

## [K]16-GACLPHKSMPCG (KKKKKKKKKKKKKKKKGACLPHKSMPCG; disulfide 19-27 (inferred)) [peptide P]
HAE cells [2]; peptide P at 7:1 charge ratio vs peptide 12 at 3:1 charge ratio, luciferase
  transfection efficiency relative to peptide 12 (next best peptide): five-fold higher
HAE cells [2]; transfection assay, FIG. 3
  transfection performance relative to peptide Q: significantly better
HAE cells [2]; vector complexes, luciferase
  transfection efficiency relative to peptide K (K16, no targeting ligand): almost nine-fold higher; also recorded: almost nine-fold more efficient

## [K]16-GACLQHKSMPCG [peptide Q]
3T3 cells
  transfection efficiency relative to peptide 6: approximately 1.5 times

## [K]16-GACSERSMNFCG (KKKKKKKKKKKKKKKKGACSERSMNFCG; disulfide 19-27 (inferred))
3T3 cells
  transfection efficiency relative to peptide 6: approximately 1.5 times

## [K]16-GACYKHPGFLCG (KKKKKKKKKKKKKKKKGACYKHPGFLCG; N-terminal K16 oligolysine; Targeting peptide, see description) [peptide S, reference compound]
HAE cells [2]; in transfection complexes
  transfection performance of peptide S relative to peptide K16: less than a tenth as good
